According to US20150335535A1, “DENTAL ADHESIVE” (DENTSPLY INTERNATIONAL INC., priority 2008, published 2015):

Assay: Thermal stability of test formulation on storage at 60° C. until thermal polymerization
Format: physicochemical
Conditions: for sufficient thermal stability: inhibitor in test formulation; for thermal stability of formulation FBE-05.44.01: all columns dark shaded
Protocol: A series of test formulations containing different thermal polymerization inhibitors was prepared in order to illustrate the surprising thermal stability of a dental adhesive composition according to the present invention. Test formulations containing different inhibitors or inhibitor concentrations were stored in Prime&Bond NT bottles ([…]) at 60° C. until thermal polymerization. The bottles were daily examined by shaking the bottle, whereby the acoustical test turned out to be rather sensitive, and by taking a sample with a pipette. When polymerization seemed to have occurred or after a certain minimum storage time (20 days) the bottles were sliced open and the solution were examined visually. According to the results of the above described Arrhenius investigation at least a thermal stability of about 11 days at 60° C. is necessary so that the dental adhesive composition may be stored at room temperature. The Test Formulation containing different inhibitors in different amounts, was investigated regarding its thermal stability by storing these formulations at 60° C. The samples were daily examined. In case of polymerization a gel or a solid, polymerized body was observed. The dark shaded columns represent formulations with inhibitors, respectively inhibitor concentrations, which were polymerized after the depicted time at 60° C. The light shaded columns represent formulations, which were not polymerized until the depicted time. Usually after 20 days the investigation was terminated.

## Cc1cc(C(C)(C)C)c(O)c(C(C)(C)C)c1 [BHT, 2,6-di-tert.-butyl-p-cresol]
Storage at 60° C.
  sufficient thermal stability: failed to provide a sufficient thermal stability

## CC(C)(C)c1ccc(O)c(O)c1 [TBC]
0.193 mol % inhibitor, storage at 60° C.
  visual examination after slicing open the bottle: some pieces of gel were found at the bottom

## CC(C)(C)c1cc(O)ccc1O [TBHQ, tert-Butylhydroquinone]
0.013 mol % inhibitor, after 20 days at 60° C.
  visual examination after slicing open the bottles: polymerization was found
After 14 days and after 20 days at 60° C., FBE-05.44.01
  visual examination after slicing open the bottles: No hints of a polymerization were found

## CCCOC(=O)c1cc(O)c(O)c(O)c1 [PG, Propyl gallate]
Storage at 60° C.
  thermal stability of formulation FBE-05.44.01: polymerized after the recorded time

## CC(C)(c1ccc(O)cc1)c1ccc(O)cc1 [Bisphenol A]
Storage at 60° C.
  thermal stability of formulation FBE-05.44.01: polymerized after the recorded time

## Oc1ccc(O)cc1 [HQ, hydroquinone]
Inhibitor 0.15 mol % in test formulation, storage at 60° C.
  stabilization effect: some stabilization effect

## COc1ccc(O)cc1 [HQME, hydroquinone monomethylether]
0.49 mol % inhibitor in FBE-05.44.01, storage at 60° C.
  visual examination after slicing open the bottle: small pieces of gel were found at the bottom
0.697 mol % inhibitor in FBE-05.44.01, storage at 60° C.
  visual examination after slicing open the bottle: small pieces of gel were found at the bottom
Storage at 60° C.
  sufficient thermal stability: failed to provide a sufficient thermal stability

## COc1ccc(O)c(C(C)(C)C)c1 [tert.-Butylhydroxyanisole, tert.-Butylhydroxyanisol]
0.047 mol % inhibitor, after 14 days at 60° C.
  visual examination after slicing open the bottles: some pieces of gel
0.047 mol % inhibitor, after 20 days at 60° C.
  visual examination after slicing open the bottles: some small pieces of gel
0.096 mol % inhibitor, after 20 days at 60° C.
  visual examination after slicing open the bottles: No indication of polymerization
0.147 mol % inhibitor, after 20 days at 60° C.
  visual examination after slicing open the bottles: No indication of polymerization
